Where two headings read alike, the source gives them in different places.
What was measured:
[1] = target: T1, CYP2B6 (Homo sapiens, UniProt P20813); experiment: biochemical
T1 sequence (P20813 1-491): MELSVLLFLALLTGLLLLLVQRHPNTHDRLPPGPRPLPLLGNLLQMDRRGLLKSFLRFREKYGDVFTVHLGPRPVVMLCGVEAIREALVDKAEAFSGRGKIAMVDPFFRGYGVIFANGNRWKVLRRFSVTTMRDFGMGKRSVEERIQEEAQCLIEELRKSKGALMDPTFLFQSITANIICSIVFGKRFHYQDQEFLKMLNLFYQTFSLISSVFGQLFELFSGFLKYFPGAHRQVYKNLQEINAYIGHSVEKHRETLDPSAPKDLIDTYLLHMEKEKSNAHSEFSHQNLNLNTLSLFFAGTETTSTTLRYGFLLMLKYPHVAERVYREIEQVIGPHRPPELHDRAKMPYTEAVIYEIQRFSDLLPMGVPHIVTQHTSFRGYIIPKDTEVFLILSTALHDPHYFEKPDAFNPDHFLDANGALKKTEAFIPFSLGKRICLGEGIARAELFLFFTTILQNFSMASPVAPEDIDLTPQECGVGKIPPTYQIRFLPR
Procedure: (§1) Incubation without 30 min pre-incubation, 178.5 µL of liver microsomes working was pre-incubated in a 37 °C water bath for 30 min. After the pre-incubation, 1.5 μL of test compound or control compound working solution, 60 μL of substrate working solution, and 60 μL of NADPH working solution were added; then, the reaction mixture was mixed by pipetting up and down and then incubated at 37 °C for 10 min. Incubation with 30 min pre-incubation. Next, 1.5 μL of test compound or control compound working solutions and 60 μL of NADPH working solution were added into 178.5 μL of liver microsome working solution, then the reaction mixture was mixed by pipetting up and down and then pre-incubated at 37 °C for 30 min. […]
(§2) For competitive and time-dependent CYP inhibition, the peak area ratios (PAR) of analyte/internal standard were used to semi-quantitatively determine the concentration of acetaminophen (CYP1A2 activity), 4’-hydroxydiclofenac (CYP2C9), 4’-hydroxymephenytoin (CYP2C19), dextrorphan (CYP2D6), 1’-hydroxymidazolam (CYP3A4), 6β-hydroxytestosterone (CYP3A4), hydroxybupropion (CYP2B6), and N-desethylamodiaquine (CYP2C8), with terfenadine as the internal standard by LC-MS/MS method. The HPLC-MS system utilized an Acquity UPLC system and Sciex API 4000 mass spectrometer in ESI positive mode, with quantitation employing MRM. […]

[2] = target: T2, CYP2C9 (Homo sapiens, UniProt P11712); experiment: Time-dependent inhibition (IC50 shift) in human liver microsomes
Procedure: as §1, §2

[3] = target: CYP2C19 (Homo sapiens, UniProt P33261); experiment: CYP direct inhibition in human liver microsomes
Procedure: Test compound/controls working solution or DMSO were added in 238.5 µL of liver microsomes working solution, mixed well by pipetting several times and pre-incubated in a 37 °C shaking water bath for 5 min. Following the pre-incubation, 60 µL of NADPH working solution were added, mixed well by pipetting several times, and incubated in a 37 °C shaking water bath for 10 min. Following the incubation, 300 µL of quenching solution were immediately added and vortexed for ~20 s to mix. All samples were centrifuged at 4000 rpm for 15 min at 4 °C and then the supernatant was transferred for LC-MS/MS analysis. IC50 values were determined by the Hill slope equation using Graph Pad Prism.
For competitive and time-dependent CYP inhibition, the peak area ratios (PAR) of analyte/internal standard were used to semi-quantitatively determine the concentration of acetaminophen (CYP1A2 activity), 4’-hydroxydiclofenac (CYP2C9), 4’-hydroxymephenytoin (CYP2C19), dextrorphan (CYP2D6), 1’-hydroxymidazolam (CYP3A4), 6β-hydroxytestosterone (CYP3A4), hydroxybupropion (CYP2B6), and N-desethylamodiaquine (CYP2C8), with terfenadine as the internal standard by LC-MS/MS method. The HPLC-MS system utilized an Acquity UPLC system and Sciex API 4000 mass spectrometer in ESI positive mode, with quantitation employing MRM. Samples were injected onto an Atlantis T3 5 μM column (2.1 x 50 mm). […]

[4] = system: MAO-A; design: method as in PMID 19168123; conditions: isolated compound at 10 µM; cited from earlier work
[5] = target: CYP2D6 (Homo sapiens, UniProt P10635); experiment: Time-dependent inhibition (IC50 shift) in human liver microsomes
Procedure: as §1, §2

[6] = system: CYP3A4/5; experiment: in vitro; conditions: human, microsomes
Procedure: as §1, §2

[7] = system: CYP3A4; conditions: human, 48 h
[8] = system: CYP3A4; conditions: for % of Positive Control / Mean Fold Induction: human, 48 h
[9] = system: CYP2B6; experiment: in vitro; conditions: human; for Mean Fold Induction: 48 h
Procedure: The sandwich medium was removed, and the hepatocytes were treated with incubation solutions containing salidroside (1, 5, 10, and 30 µM), vehicle (0.1% DMSO), or positive inducers in triplicate for 24 h after the cultures were established. The incubation solution was aspirated and replaced with incubation solution containing the same concentrations of salidroside, vehicle, or positive inducers for an additional 24 h. The total treatment period was 48 h. After the treatment period of 48 h, the incubation solution was aspirated. Hepatocytes were washed twice with pre-warmed HBSS containing 10 mM HEPES (HBSS I) and then the remaining solution was aspirated. Hepatocytes were washed once with pre-warmed HBSS I and incubated with 140 μL of RLT (lysis buffer from RNeasy 96 Kit) supplemented with 1% β-mercaptoethanol. Plates were then stored at −70 °C in a freezer until RNA analysis. Before RNA extraction, the frozen plate was thawed, and cell lysates were transferred to 96-well plates. RNA isolation was performed using a QIAcube RNA extraction system. Reverse transcription was performed to obtain cDNA. Quantification of the selective genes by real-time quantitative polymerase chain reaction (qPCR) was performed with TaqMan universal PCR Master Mix on the Bio-rad CFX384 TouchTM Real-Time PCR System. The relative change in the mRNA level of the selected target genes induced by each test compound was expressed in relation to the vehicle control sample, and fold changes in gene expression were determined by the ΔΔCt method.

[10] = target: T3, recombinant human MAO-B (Homo sapiens, UniProt P27338); experiment: MAO inhibition, kynuramine oxidation to 4-hydroxyquinoline; type: biochemical
T3 construct: purchased Corning
T3 sequence (P27338 1-520): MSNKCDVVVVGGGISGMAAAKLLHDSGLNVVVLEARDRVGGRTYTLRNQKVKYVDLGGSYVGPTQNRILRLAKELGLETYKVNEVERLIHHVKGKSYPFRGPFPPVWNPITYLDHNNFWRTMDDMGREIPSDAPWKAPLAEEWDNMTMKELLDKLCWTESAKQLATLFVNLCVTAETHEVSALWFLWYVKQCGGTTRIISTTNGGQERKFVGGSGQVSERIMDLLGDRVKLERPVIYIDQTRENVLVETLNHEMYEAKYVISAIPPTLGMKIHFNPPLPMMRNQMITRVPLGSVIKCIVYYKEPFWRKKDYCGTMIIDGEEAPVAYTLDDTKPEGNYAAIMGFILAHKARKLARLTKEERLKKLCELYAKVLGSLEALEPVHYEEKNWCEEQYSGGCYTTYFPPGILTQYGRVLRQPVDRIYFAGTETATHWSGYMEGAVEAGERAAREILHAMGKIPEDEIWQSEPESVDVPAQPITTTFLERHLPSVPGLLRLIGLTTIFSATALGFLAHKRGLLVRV
Procedure: A total of 99 µL of substrate working solution was added into 1.1 mL incubation tubes and then 1 µL of the test compound/control working solution or DMSO (vehicle control) was added, mixed well, and pre-incubated at 37 °C for 5 min. MAO-A (0.005 mg/mL) and MAO-B (0.02 mg/mL) were pre-incubated in the working solution at 37 °C for 5 min. A total of 100 µL of pre-incubated MAO-A or MAO-B working solution was added to incubation tubes to start the reaction, mixed well, and incubated at 37 °C for 15 min. […] All samples were centrifuged at 4000 rpm at 4 °C for 15 min, then 100 µL supernatant with 100 µL of water was transferred for LC-MS/MS analysis.
Enzyme activity (%) = PAR with compound/PAR vehicle × 100.
The oxidation of kynuramine to 4-hydroxyquinoline generated was the in vitro marker reaction of MAO-A and MAO-B enzymes.

[11] = target: T2, CYP2C9; conditions: microsomes
Procedure: as §1, §2

[12] = in vitro; conditions: Sprague-Dawley (SD), rat, plasma, pH 7.4
Procedure: The experiment was performed using equilibrium dialysis with the two compartments separated by a semi-permeable membrane. Phosphate-buffered saline (PBS) (pH 7.4) was added to one side of the membrane and the plasma solution to the other side. After equilibration (5 h at 37 °C), samples were taken from both sides of the membrane, transferred to a new plate, and were matrix-matched by the addition of an appropriate amount of PBS to the plasma samples and blank plasma to the PBS samples. […] Incubations were performed in duplicate. Warfarin served as a control. The fraction unbound in plasma (fu,p) = Cb/Cp, where Cb represents the concentration in buffer and Cp the concentration in plasma at 5 h.

T2 sequence (P11712 whole entry): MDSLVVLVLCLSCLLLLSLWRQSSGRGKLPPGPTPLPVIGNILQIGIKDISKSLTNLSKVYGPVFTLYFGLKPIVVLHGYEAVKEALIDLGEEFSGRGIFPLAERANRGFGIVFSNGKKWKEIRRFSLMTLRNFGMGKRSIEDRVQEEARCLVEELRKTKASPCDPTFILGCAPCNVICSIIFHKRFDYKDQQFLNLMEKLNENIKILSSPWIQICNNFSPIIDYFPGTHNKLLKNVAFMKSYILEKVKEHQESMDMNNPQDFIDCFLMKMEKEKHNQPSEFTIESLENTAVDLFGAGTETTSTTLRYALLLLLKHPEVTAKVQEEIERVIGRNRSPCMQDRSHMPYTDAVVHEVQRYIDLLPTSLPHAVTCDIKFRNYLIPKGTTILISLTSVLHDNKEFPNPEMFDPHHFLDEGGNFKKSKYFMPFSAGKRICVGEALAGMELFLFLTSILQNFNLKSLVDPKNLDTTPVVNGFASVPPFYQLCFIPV
Chain of CYP2D6 (P10635 whole entry): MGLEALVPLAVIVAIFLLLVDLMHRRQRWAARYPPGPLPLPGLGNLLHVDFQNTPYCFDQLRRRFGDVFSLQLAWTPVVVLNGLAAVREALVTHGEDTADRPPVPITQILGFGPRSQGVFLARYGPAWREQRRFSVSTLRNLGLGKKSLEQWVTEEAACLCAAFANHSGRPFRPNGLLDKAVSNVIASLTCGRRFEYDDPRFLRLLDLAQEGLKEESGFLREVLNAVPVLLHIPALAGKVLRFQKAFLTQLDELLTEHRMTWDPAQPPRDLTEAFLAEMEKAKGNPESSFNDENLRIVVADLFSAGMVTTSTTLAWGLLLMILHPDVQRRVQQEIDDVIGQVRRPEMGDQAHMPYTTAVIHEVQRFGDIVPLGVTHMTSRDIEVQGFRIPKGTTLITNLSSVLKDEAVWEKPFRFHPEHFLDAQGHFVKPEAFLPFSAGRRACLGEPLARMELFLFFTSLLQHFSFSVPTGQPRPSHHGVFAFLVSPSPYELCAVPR
Chain of CYP2C19 (P33261 whole entry): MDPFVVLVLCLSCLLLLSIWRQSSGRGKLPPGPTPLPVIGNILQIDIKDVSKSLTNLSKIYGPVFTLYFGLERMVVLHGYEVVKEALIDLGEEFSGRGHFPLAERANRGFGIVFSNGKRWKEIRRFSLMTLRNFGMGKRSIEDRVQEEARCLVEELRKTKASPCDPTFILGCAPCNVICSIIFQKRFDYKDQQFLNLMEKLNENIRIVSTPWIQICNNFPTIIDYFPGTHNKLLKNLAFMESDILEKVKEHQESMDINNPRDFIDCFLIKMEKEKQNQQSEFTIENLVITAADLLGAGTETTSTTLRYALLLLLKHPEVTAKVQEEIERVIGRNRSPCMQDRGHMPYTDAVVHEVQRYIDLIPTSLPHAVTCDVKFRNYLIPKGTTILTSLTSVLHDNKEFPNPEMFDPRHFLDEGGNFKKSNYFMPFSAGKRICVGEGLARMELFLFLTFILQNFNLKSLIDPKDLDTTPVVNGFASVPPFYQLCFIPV

SMILES: OC[C@H]1O[C@@H](OCCc2ccc(O)cc2)[C@H](O)[C@@H](O)[C@@H]1O [Salidroside]
- IC50 [1]: > 50 µM
- IC50 [2]: > 50 µM
- IC50 [3]: > 50 µM
- inhibition of MAO-A [4]: inactive
- IC50 [5]: > 50 µM
- IC50 at 10 min [6]: > 50 µM
- % Positive Control ([7]; 3 µM): 0%
- % Positive Control ([7]; 10 µM): 0%
- Mean Enzyme Activity ([8]; CYP3A4, Lot# SNP, 0.1 µM, N = 3): 1.82 pmol/10^6 cells/min
- % of Positive Control ([8]; 0.1 µM): −15%
- Mean Fold Induction ([8]; 0.1 µM): 2.07 fold
- % of Positive Control ([8]; 1 µM): −26%
- Mean Fold Induction ([8]; 1 µM): 1.55 fold
- % of Positive Control ([8]; 10 µM): −14%
- Mean Fold Induction ([8]; 10 µM): 2.13 fold
- Mean Fold Induction ([9]; 1 µM): 0.6 fold
- Mean Fold Induction ([9]; 10 µM): 1.1 fold
- fold induction at 48 h, 1 µM ([9]; Mean Fold Induction): 0.9
- fold induction at 48 h, 3 µM ([9]; Mean Fold Induction): 1.2
- fold induction at 48 h, 10 µM ([9]; Mean Fold Induction): 0.8
- inhibition at 50 µM ([10]; at 50 µM, read-out: maximum % inhibition of MAO-B): 22.5%
- IC50 ([10]; substrate kynuramine (20 µM), mean of N = 2): > 50 µM
- IC50 Shift [11]: no shift
- fraction unbound at 5 h, 5 µM [12]: 0.856

— PMC10489644, “In Vitro Evaluation of the Potential for Drug Interactions by Salidroside” (Nutrients, 2023)
